This is an account of results in patent publication US20240074997A1 (priority 2022, published 2024).

≈ marks a conversion by molar mass, not a printed value.

In series [1] the target is T1, glucocorticoid receptor recombinant human protein, ligand binding domain (Homo sapiens, UniProt P04150).
T1 construct: purchased Thermo Fisher Scientific A15668
T1 sequence (P04150 524-758 limits assumed): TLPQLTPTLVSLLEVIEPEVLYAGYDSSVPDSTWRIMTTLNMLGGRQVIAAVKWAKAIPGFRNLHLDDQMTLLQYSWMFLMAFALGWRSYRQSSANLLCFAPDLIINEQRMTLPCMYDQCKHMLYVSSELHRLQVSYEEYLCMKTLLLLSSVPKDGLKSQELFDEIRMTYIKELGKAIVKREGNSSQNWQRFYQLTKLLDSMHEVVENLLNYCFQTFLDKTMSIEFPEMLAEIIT
Nature of the series: glucocorticoid receptor LBD coregulator-derived peptide array. In kind it is biochemical. The following applies: Example 2, 0.1 mM vs solvent 2% DMSO, FIG. 6.
Method: EXAMPLE 1: Interactions between the glucocorticoid receptor ligand binding domain (LBD) and coregulator-derived peptides were determined using the method as described by Zalachoras et al 2009^xl. Each peptide array consisting of 11 coregulator peptides as described in Table 1 were incubated with a reaction mixture of 1 nM purified glucocorticoid receptor recombinant human protein, ligand binding domain, (Thermo Fisher Scientific, cat #A15668), ALEXA488-conjugated anti-Glutathione S-Transferase (GST) antibody and buffer F (PV4689, A-11131, and PV4547; Invitrogen). […] Incubation was performed at 20° C. on the peptide array, using one two arrays per condition. glucocorticoid receptor binding to each peptide on the array, reflected by fluorescent signal, was quantified by image analysis using R-based software (Precision Medicine Lab). […] Glucocorticoid receptor binding to each peptide on the array, reflected by fluorescent signal, was quantified by image analysis using R-based software (Precision Medicine Lab). […]
The use of glucocorticoid receptor LBD was as described in Experiment 1. […] Glucocorticoid receptor binding to each peptide on the array, reflected by fluorescent signal, was quantified by image analysis using R-based software (Precision Medicine Lab).

The conditions of series [2]: cited from earlier work.
The conditions of series [3]: cited from earlier work. The source holds these as a separate data set.
For series [4] the following is noted: cited from earlier work. This is another data set of the same source.
The next series has as its target T2, RARγ (Homo sapiens, UniProt P13631).
T2 sequence (P13631 1-454): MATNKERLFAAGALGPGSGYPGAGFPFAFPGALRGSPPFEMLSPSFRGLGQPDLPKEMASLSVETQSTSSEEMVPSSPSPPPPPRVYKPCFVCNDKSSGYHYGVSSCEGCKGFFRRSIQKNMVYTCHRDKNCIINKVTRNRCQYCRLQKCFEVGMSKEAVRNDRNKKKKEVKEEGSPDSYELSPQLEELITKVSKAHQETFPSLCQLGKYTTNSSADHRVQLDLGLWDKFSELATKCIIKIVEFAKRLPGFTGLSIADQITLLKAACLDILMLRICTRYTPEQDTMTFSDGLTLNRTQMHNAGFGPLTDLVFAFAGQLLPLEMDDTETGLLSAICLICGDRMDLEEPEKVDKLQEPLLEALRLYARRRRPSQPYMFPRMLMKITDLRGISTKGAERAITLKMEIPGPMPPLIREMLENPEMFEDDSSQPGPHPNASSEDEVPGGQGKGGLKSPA
The following applies: cited from earlier work.

The subject of a further series is RM-1 cells. The following applies: cited from earlier work.
The target in the next series is T3, RARβ (Homo sapiens, UniProt P10826).
T3 sequence (P10826 1-455): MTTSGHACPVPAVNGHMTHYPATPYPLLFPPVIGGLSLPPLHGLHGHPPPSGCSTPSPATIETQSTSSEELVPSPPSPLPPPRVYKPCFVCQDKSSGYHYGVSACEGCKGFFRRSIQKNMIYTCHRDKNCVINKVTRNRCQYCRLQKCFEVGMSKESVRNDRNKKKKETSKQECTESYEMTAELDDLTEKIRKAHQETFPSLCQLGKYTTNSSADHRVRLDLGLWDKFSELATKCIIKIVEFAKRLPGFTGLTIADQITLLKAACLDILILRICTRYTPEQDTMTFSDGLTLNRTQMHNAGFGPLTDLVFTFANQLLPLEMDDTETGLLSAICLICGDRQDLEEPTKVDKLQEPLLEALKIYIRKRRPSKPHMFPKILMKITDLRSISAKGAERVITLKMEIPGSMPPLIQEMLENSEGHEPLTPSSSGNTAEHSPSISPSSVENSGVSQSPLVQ
The following applies: cited from earlier work.

The next series relates to zebrafish larvae. Nature of the series: Zebrafish inflammation model (tail fin clip, neutrophil migration). In kind it is in vivo. The conditions noted are these: 4 hours, clipped 3 day old larvae, p<0.001 vs. Vehicle. The text has this: The details of this model have been described previously (Xie, Y., Meijer, […]. Modeling Inflammation in Zebrafish for the Development of Anti-inflammatory Drugs. Front. Cell Dev. Biol. 8, 620984 (2021)). In short, a zebrafish model with fluorescently labeled neutrophils is used. The tip of the tail fin of 3 day old zebrafish larvae are clipped. As a result, a local inflammatory response is initiated and evokes to leukocyte migration towards the wound. The number of attracted neutrophils is recorded and serves as parameters for inflammation. […] (Significance ***: p<0.001, as determined by Student's t-Test vs. Vehicle)

For series [5] the following is noted: cited from earlier work. This is another data set of the same source.
The target of a further series is T4, glucocorticoid receptor (Homo sapiens, UniProt P04150).
T4 sequence (P04150 1-777): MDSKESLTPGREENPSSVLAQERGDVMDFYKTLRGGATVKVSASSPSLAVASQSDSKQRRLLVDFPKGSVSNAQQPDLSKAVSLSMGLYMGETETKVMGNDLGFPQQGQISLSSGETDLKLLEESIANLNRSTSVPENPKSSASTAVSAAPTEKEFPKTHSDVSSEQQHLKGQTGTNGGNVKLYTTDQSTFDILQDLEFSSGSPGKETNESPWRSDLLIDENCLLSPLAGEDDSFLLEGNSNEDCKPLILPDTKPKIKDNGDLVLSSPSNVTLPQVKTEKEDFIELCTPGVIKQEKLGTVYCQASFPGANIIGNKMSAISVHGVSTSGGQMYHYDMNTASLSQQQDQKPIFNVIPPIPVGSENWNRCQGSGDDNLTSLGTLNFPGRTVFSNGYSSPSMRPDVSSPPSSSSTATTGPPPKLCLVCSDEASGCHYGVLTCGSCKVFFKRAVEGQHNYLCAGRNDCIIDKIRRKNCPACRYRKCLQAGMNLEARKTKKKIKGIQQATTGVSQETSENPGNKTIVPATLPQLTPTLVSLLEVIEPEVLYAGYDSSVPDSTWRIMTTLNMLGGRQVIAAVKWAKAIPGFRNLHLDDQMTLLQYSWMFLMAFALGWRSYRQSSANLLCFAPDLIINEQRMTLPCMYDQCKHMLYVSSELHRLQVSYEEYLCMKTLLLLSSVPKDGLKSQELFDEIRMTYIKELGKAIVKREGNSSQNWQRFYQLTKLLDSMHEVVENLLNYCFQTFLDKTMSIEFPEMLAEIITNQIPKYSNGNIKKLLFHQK
The conditions noted are these: cited from earlier work.

`CC1=C(/C=C/C(C)=C/C=C/C(C)=C/C(=O)O)C(C)(C)CCC1` [ATRA, all-trans retinoic acid]: the “glucocorticoid receptor-modulating effect (binding profile)” value in [1] is reported as “does not display any glucocorticoid receptor-modulating effect”.

As a reminder, the pKa is the pH at which an ionisable group is half protonated. Regarding `COc1ccc(-c2ccc3cc(C(=O)O)ccc3c2)cc1C12CC3CC(CC(C3)C1)C2` [Adapalene, 6-[3-(1-adamantyl)-4-methoxyphenyl]naphthalene-2-carboxylic acid], the “degradation in acidic condition” value in [2] (0.3 M HCl solution, 10 min of boiling) is given as 28%. In addition, the “stability in alkaline condition” value in [2] (2 M NaOH solution, boiled for 2 h) was “stable”. The “degradation in oxidative conditions” value in series [2] (80° C. for 10 min with 30% hydrogen peroxide solution) was 30%. The “degradation on exposure to UV light” value in series [2] (254 and 366 nm, 12 h) is recorded as 25%. In [3] (25° C.), the “solubility in dimethyl sulfoxide” value was above 10000 µg/mL, the solubility in dimethylformamide is 5000 µg/mL (≈ 12.1 mM), the solubility in ethanol is below 1000 µg/mL and the solubility in tetrahydrofuran was 5000 µg/mL (≈ 12.1 mM). In addition, the solubility in water result in series [3] is “poor solubility”. Moreover, in [4], the pKa is reported as 4.23, the “pKa (strongest acidic)” value was 3.99 and the “pKa (strongest basic)” value is given as −4.8. The “affinity for RARγ” value at RARγ is reported as “high affinity”. The “migration ability of RM-1 cells (wound-healing assay)” value in the series with RM-1 cells (dose-dependent) is “significantly suppressed”. The “invasiveness of RM-1 cells” value in the series on RM-1 cells (high doses) is listed as “decrease the invasiveness”. Also, the “affinity for RARβ” value on RARβ is listed as “high affinity”. Further, the “anti-inflammatory action (number of attracted neutrophils)” value in the series on zebrafish larvae (1 μM) is recorded as “significant anti-inflammatory action”.

Take `C[C@@H]1C[C@H]2[C@@H]3C[C@H](F)C4=CC(=O)C=C[C@]4(C)[C@@]3(F)[C@@H](O)C[C@]2(C)[C@@]1(OC(=O)C1C(C)(C)C1(C)C)C(=O)OCC#N` [GW870086]: the “clinical efficacy in atopic dermatitis” value in [5] (atopic dermatitis patients) was “did not achieve significant clinical efficacy”. The skin atrophy result in series [5] (healthy adults) was “does not include skin atrophy”.

`C[C@H](NC(=O)[C@H]1CCCO1)[C@H](Oc1ccc(C(=O)O[C@H]2CCCN(C(=O)[C@H]3COC(=O)C3)C2)cc1)c1ccc(C2CC2)cc1` [LEO 134310]: at glucocorticoid receptor, the potency on transactivation entry is “lower potency” and the potency on transrepression entry was “high potency”.

As for `C[C@H]1C[C@H]2[C@@H]3CCC4=CC(=O)C=C[C@]4(C)[C@@]3(Cl)[C@@H](O)C[C@]2(C)[C@@]1(O)C(=O)CO` [beclomethasone], the “anti-inflammatory action (number of attracted neutrophils)” value in the series with zebrafish larvae (25 μM) was “significant anti-inflammatory action”.
